Test results taken from patent publication US9271971B2, “Pyrido[3,4-B]indoles and methods of use” (Medivation Technologies, Inc., priority 2009, dated 2016).

Columns and labels:
[1] = target: T1, human recombinant serotonin (5-Hydroxytryptamine) 5-HT2A receptor (Homo sapiens, UniProt P28223); assay: Serotonin 5-HT2A radioligand binding assay; conditions: [3H]Ketanserin specific binding; for inhibition at 1 µM: read-out: Percent Inhibition of ligand binding, Serotonin (1 μM ligand concentration) 5-HT2A
T1 construct: expressed in transfected cells; host or cells: Chinese hamster ovary (CHO-K1) cells
Protocol: To evaluate in radioligand binding assays the activity of compounds of the invention, human recombinant serotonin (5-Hydroxytryptamine) 5-HT2A receptor expressed in Chinese hamster ovary (CHO-K1) cells [Bonhaus, D. W. et al., Br. J. Pharmacol. (1995), 115:622; Saucier, C. et al., J. Neurochem. (1997), 68:1998] in a 50 mM Tris-HCl buffer, pH 7.4, was used. Compounds of the invention were incubated with 0.5 nM [^3H]Ketanserin for 60 min. at 25° C. Non-specific binding was estimated in the presence of 1 μM Mianserin. Receptor proteins were filtered and washed, the filters were then counted to determine [^3H]Ketanserin specifically bound. Compounds were screened at 1 μM or lower, using 1% DMSO as vehicle. Biochemical assay results are presented as the percent inhibition of specific binding in Table 4.

[2] = target: T2, human recombinant serotonin (5-Hydroxytryptamine) 5-HT2C receptor (Homo sapiens, UniProt P28335); assay: Serotonin 5-HT2C radioligand binding assay; conditions: [3H]Mesulergine specific binding; for inhibition at 1 µM: read-out: Percent Inhibition of ligand binding, Serotonin (1 μM ligand concentration) 5-HT2C
T2 construct: expressed in transfected cells; host or cells: Chinese hamster ovary (CHO-K1) cells
T2 sequence (P28335 33-458): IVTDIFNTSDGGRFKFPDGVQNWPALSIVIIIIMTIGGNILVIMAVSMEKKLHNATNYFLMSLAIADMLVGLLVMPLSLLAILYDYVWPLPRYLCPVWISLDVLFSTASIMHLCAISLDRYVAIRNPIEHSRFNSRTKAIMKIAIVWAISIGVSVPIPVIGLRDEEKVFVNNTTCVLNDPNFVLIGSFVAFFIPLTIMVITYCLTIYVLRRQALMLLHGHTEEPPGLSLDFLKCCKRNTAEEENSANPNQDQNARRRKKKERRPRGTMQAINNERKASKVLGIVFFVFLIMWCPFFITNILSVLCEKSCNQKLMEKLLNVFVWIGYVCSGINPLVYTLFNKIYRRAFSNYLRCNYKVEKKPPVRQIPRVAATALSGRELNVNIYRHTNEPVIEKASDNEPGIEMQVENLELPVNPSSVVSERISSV
Protocol: To evaluate in radioligand binding assays the activity of compounds of the invention, human recombinant serotonin (5-Hydroxytryptamine) 5-HT2C receptor expressed in Chinese hamster ovary (CHO-K1) cells [Wolf, W. A. et al., J. Neurochem. (1997), 69:1449] in a modified Tris-HCl buffer (50 mM Tris-HCl, pH 7.4, 0.1% Ascorbic Acid, 10 μM Pargyline) was used. Compounds of the invention were incubated with 1 nM [^3H]Mesulergine for 60 min. at 25° C. Non-specific binding was estimated in the presence of 1 μM Mianserin. Receptor proteins were filtered and washed, the filters were then counted to determine [^3H]Mesulergine specifically bound. Compounds were screened at 1 μM or lower, using 1% DMSO as vehicle. Biochemical assay results are presented as the percent inhibition of specific binding in Table 4.

[3] = target: T3, human recombinant adrenergic α1D receptor (Homo sapiens, UniProt P25100); assay: Adrenergic α1D radioligand binding assay; conditions: [3H]Prozosin specific binding; for inhibition at 1 µM: read-out: Percent Inhibition of ligand binding, Adrenergic (1 μM ligand conc.) α1D; for inhibition at 0.1 µM: read-out: Percent Inhibition of ligand binding, Adrenergic (0.1 μM ligand conc.) α1D
T3 construct: expressed in transfected cells; host or cells: human embryonic kidney (HEK-293) cells
T3 sequence (P25100 1-572): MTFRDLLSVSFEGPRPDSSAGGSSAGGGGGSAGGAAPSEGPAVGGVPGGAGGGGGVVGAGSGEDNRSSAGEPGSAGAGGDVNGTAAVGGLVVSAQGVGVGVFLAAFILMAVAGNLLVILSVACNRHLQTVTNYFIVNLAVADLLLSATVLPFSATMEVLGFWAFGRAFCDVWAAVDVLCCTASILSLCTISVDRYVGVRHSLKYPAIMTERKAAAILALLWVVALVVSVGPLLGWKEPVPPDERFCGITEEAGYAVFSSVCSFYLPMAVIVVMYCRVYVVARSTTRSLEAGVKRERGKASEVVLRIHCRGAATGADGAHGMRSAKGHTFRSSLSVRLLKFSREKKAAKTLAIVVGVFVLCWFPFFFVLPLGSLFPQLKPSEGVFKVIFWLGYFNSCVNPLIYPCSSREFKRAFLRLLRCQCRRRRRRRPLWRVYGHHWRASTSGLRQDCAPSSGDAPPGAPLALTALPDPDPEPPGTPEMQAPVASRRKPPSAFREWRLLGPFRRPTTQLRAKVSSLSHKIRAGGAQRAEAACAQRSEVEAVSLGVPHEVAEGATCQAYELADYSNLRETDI
Protocol: To evaluate in radioligand binding assays the activity of compounds of the invention, human recombinant adrenergic α1D receptor expressed in human embryonic kidney (HEK-293) cells [Kenny, B. A. et al. Br. J. Pharmacol. (1995), 115(6):981] in a 50 mM Tris-HCl buffer, pH 7.4, was used. Compounds of invention were incubated with 0.6 nM [^3H]Prozosin for 60 min. at 25° C. Non-specific binding was estimated in the presence of 10 μM phentolamine. Receptor proteins were filtered and washed, the filters were then counted to determine [^3H]Prozosin specifically bound. Compounds were screened at 1 μM or lower, using 1% DMSO as vehicle. Compounds of the invention were tested in this biochemical assay. Biochemical assay results for representative compounds were presented as the percent inhibition of specific binding in Table 3.

T1 sequence (P28223 whole entry): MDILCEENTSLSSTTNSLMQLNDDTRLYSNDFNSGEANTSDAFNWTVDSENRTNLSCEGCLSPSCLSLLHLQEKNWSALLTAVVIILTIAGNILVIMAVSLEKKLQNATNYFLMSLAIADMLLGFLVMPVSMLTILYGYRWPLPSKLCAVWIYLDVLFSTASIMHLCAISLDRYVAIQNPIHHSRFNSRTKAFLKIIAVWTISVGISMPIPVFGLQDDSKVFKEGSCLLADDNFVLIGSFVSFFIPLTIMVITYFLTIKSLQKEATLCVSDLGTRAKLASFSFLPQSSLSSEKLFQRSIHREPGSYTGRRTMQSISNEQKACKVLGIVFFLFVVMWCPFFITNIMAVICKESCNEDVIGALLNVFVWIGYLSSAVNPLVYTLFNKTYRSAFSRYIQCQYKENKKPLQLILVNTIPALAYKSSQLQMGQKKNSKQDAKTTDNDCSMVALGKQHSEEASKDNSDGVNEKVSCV

| SMILES | inhibition at 1 µM [1] [%] | inhibition at 1 µM [2] [%] | inhibition at 1 µM [3] [%] | inhibition at 0.1 µM [3] [%] | Percent Inhibition of ligand binding, Serotonin (1 μM ligand concentration) 5-HT2A [1] [%] | Percent Inhibition of ligand binding, Adrenergic (1 μM ligand conc.) α1D [3] [%] | Percent Inhibition of ligand binding, Serotonin (1 μM ligand concentration) 5-HT2C [2] [%] |
| --- | --- | --- | --- | --- | --- | --- | --- |
| COc1ccc(/C(C)=C/n2c3c(c4cc(C)ccc42)C2CCN(C3)C2)cc1F (stereo not shown) [Compound 41] | 92 | 97 |  |  |  |  |  |
| Cc1ccc2c(c1)c1c(n2CC(C)(O)c2ccc(F)cc2)CN2CCC1C2 (stereo not shown) [Compound 2] | 76 | 57 | 15 |  |  |  |  |
| C/C(=C\n1c2c(c3cc(C)ccc31)C1CCN(C2)C1)c1ccc(Cl)cc1 (stereo not shown) [Compound 32] | 86 | 92 | 80 | 9 |  |  |  |
| Cc1ccc2c(c1)c1c(n2CC(=O)c2ccccc2)CN2CCC1C2 (stereo not shown) [Compound 21] | 16 | -4 | -4 |  |  |  |  |
| Cc1ccc2c(c1)c1c(n2CCc2ccc(C(F)(F)F)nc2)CN2CCC1C2 (stereo not shown) [Compound 1] | 18 | 10 | 51 |  |  |  |  |
| Cc1ccc2c(c1)c1c(n2CC(=O)c2ccc(F)cc2)CN2CCC1C2 (stereo not shown) [Compound 28] | 61 | 83 | 49 |  |  |  |  |
| COc1ccc(C(O)Cn2c3c(c4cc(C)ccc42)C2CCN(C3)C2)cc1F (stereo not shown) [Compound 6] | 45 | 43 | 28 |  |  |  |  |
| Cc1ccc2c(c1)c1c(n2CC(C)(O)c2ccc(F)c(Cl)c2)CN2CCC1C2 (stereo not shown) [Compound 18] | 81 | 87 | 1 |  |  |  |  |
| C/C(=C\n1c2c(c3cc(C)ccc31)C1CCN(C2)C1)c1ccc(Cl)cc1Cl (stereo not shown) [Compound 34] |  |  |  |  | 94 | 11 | 99 |
| Cc1ccc(C(O)Cn2c3c(c4cc(C)ccc42)C2CCN(C3)C2)cc1 (stereo not shown) [Compound 5] | 81 | 53 | 34 |  |  |  |  |
| Cc1ccc2c(c1)c1c(n2C(=O)Cc2ccc(F)cc2)CN2CCC1C2 (stereo not shown) [Compound 43] | 48 | 66 |  |  |  |  |  |
| COc1ccc(/C(C)=C/n2c3c(c4cc(C)ccc42)C2CCN(C3)C2)cc1 (stereo not shown) [Compound 45] | 98 | 98 |  | -1 |  |  |  |
| C/C(=C/n1c2c(c3cc(C)ccc31)C1CCN(C2)C1)c1ccccc1F (stereo not shown) [Compound 37] | 96 | 94 |  |  |  |  |  |
| Cc1ccc2c(c1)c1c(n2CCc2nc(-c3ccccc3)cs2)CN2CCC1C2 (stereo not shown) [Compound 19] | 0 | 23 | 34 |  |  |  |  |
| Cc1ccc2c(c1)c1c(n2CC(=O)c2ccc(Cl)cc2)CN2CCC1C2 (stereo not shown) [Compound 29] | 56 | 74 | 42 |  |  |  |  |
| Cc1ccc(C(C)(O)Cn2c3c(c4cc(C)ccc42)C2CCN(C3)C2)cc1 (stereo not shown) [Compound 20] | 102 | 94 | 29 |  |  |  |  |
| C/C(=C\n1c2c(c3cc(C)ccc31)C1CCN(C2)C1)c1ccc(F)cc1 (stereo not shown) [Compound 22] | 97 | 96 | 81 |  |  |  |  |
| Cc1ccc2c(c1)c1c(n2CC(=O)N2CCOCC2)CN2CCC1C2 (stereo not shown) [Compound 26] | 5 | 20 | 6 |  |  |  |  |

| SMILES | inhibition at 1 µM [1] [%] | inhibition at 1 µM [2] [%] | inhibition at 1 µM [3] [%] | inhibition at 0.1 µM [3] [%] | Percent Inhibition of ligand binding, Serotonin (1 μM ligand concentration) 5-HT2A [1] [%] | Percent Inhibition of ligand binding, Adrenergic (1 μM ligand conc.) α1D [3] [%] | Percent Inhibition of ligand binding, Serotonin (1 μM ligand concentration) 5-HT2C [2] [%] |
| --- | --- | --- | --- | --- | --- | --- | --- |
| C/C(=C\n1c2c(c3cc(C)ccc31)C1CCN(C2)C1)c1ccc(Cl)cc1Cl (stereo not shown) [Compound 33] | 78 | 95 |  | -6 |  | 28 |  |
| Cc1ccc2c(c1)c1c(n2CCc2ccncc2)CN2CCC1C2 (stereo not shown) [Compound 30] | 71 | 85 | 40 |  |  |  |  |
| Cc1ccc2c(c1)c1c(n2CCc2cncc(F)c2)CN2CCC1C2 (stereo not shown) [Compound 9] | -6 | 4 | 24 |  |  |  |  |
| C/C(=C\n1c2c(c3cc(C)ccc31)C1CCN(C2)C1)c1ccc(Cl)c(Cl)c1 (stereo not shown) [Compound 40] | 94 | 89 |  |  |  |  |  |
| Cc1ccc2c(c1)c1c(n2CC(O)c2ccc(F)cc2)CN2CCC1C2 (stereo not shown) [Compound 31] | 58 | 46 | 34 |  |  |  |  |
| Cc1ccc2c(c1)c1c(n2CC(C)(O)c2ccc(Cl)cc2)CN2CCC1C2 (stereo not shown) [Compound 16] | 92 | 92 | 24 |  |  |  |  |
| Cc1ccc2c(c1)c1c(n2CC(=O)N2CCCCC2)CN2CCC1C2 (stereo not shown) [Compound 7] | -3 | 2 | -7 |  |  |  |  |
| Cc1ccc2c(c1)c1c(n2C(=O)Cc2ccc(Cl)cc2)CN2CCC1C2 (stereo not shown) [Compound 36] | 89 | 89 |  | -2 |  |  |  |
| C/C(=C\n1c2c(c3cc(C)ccc31)C1CCN(C2)C1)c1ccccc1F (stereo not shown) [Compound 38] | 90 | 93 |  | -3 |  |  |  |
| Cc1ccc2c(c1)c1c(n2CC(O)c2ccccc2)CN2CCC1C2 (stereo not shown) [Compound 4] | 49 | 31 | 54 |  |  |  |  |
| Cc1ccc2c(c1)c1c(n2CC(=O)N2CCC(C)CC2)CN2CCC1C2 (stereo not shown) [Compound 25] | 2 | 15 | -1 |  |  |  |  |
| Cc1ccc2c(c1)c1c(n2C#Cc2ccc(Cl)cc2)CN2CCC1C2 (stereo not shown) [Compound 35] | 87 | 94 |  |  |  |  |  |
| Cc1ccc2c(c1)c1c(n2CC(C)(O)c2ccc(F)c(F)c2)CN2CCC1C2 (stereo not shown) [Compound 15] | 82 | 87 | 28 |  |  |  |  |
| Cc1ccc2c(c1)c1c(n2CCc2ccccn2)CN2CCC1C2 (stereo not shown) [Compound 11] | 10 | 17 | 26 |  |  |  |  |
| Cc1ccc2c(c1)c1c(n2CC(=O)NC2CCCCC2)CN2CCC1C2 (stereo not shown) [Compound 23] | -4 | 11 | 18 |  |  |  |  |
| C/C(=C\n1c2c(c3cc(C)ccc31)C1CCN(C2)C1)c1ccc(F)c(F)c1 (stereo not shown) [Compound 39] | 94 | 94 |  |  |  |  |  |
| C/C(=C\n1c2c(c3cc(C)ccc31)C1CCN(C2)C1)c1cccnc1 (stereo not shown) [Compound 42] | 47 | 64 |  |  |  |  |  |
